Reference: patent publication US20120156150A1, “Composition for Improving Skin Condition Comprising Extract from Black Tea as Active Ingredient” (Keimyung University Industry Academic Cooperation Foundation, priority 2010, published 2012)
Marks after values point to notes of the source that are not given here.

Legend:
[1] = test system: UVB-irradiated skin; experiment: Transepidermal water loss (TEWL), SKH-1 hairless mouse; type: in vivo; conditions: for TEWL: RA 0.01%, GT/WT/BT 2%
Experimental: (§1) 7-week-old SKH-1 hairless mice was purchased from Charles River (Japan). The animals were accustomed to the test environment for 1 week. The animals were housed in individual cages under the environment of 22±1° C. and 50±5% relative humidity with 12-hour alternate dark/light cycles. Feed and water were given ad libitum. The animals were grouped into 7 groups as follows, with 7 mice per each:
(§2) The mouse was subjected to UVB radiation (302 nm sunlamp) on the back for […], 3 times a week. The radiation amount was 1 minimal erythemal dose (MED: 60 mJ/cm^2) on the 1st week, 2 MED (120 mJ/cm^2) on the 2nd week, 3 MED (180 mJ/cm^2) on the 3rd week, and 4 MED (240 mJ/cm^2) on the 4th to 12th weeks. The radiation with 4 MED was carried out once a week during the test period.
(§3) After inducing wrinkle formation, 200 μL of saline or the sample was applied for 4 weeks, 5 times a week (2%: 0.26 g/kg BW/day). RA was applied together with polyethylene glycol at a concentration of 0.01% for 4 weeks, 5 times a week, twice a day, with 200 μL per each.
(§4) Skin erythema index, water content and transepidermal water loss (TEWL) were measured in a non-invasive manner using a mexameter, a corneometer and a tewameter, once a week during the test period.

[2] = Organ weight (spleen, thymus); type: in vivo, SKH-1 hairless mouse
Experimental: After extracting the skin, a portion of the skin was fixed in 10% neutral-buffered formalin solution for histological analysis and the remainder was kept in a refrigerator (−80° C.) for analysis of MMPs. Thymus and spleen extracts were washed with saline and weighed on an electronic scale after removing water with filer paper.

[3] = Water and feed intake, feed efficiency and body weight; type: in vivo, SKH-1 hairless mouse
Experimental: Water and feed intake of the test animal was measured once a week. Body weight was measured between 09:00 and 10:00 in the morning, once a week during the test period.

[4] = test system: UVB-irradiated skin; experiment: Skin water content (corneometer), SKH-1 hairless mouse; type: in vivo; conditions: for water content of the skin: RA 0.01%, GT/WT/BT 2%
Experimental: as §1, §2, §3, §4

[5] = test system: UVB-induced wrinkles; experiment: Measurement of wrinkles (skin replica, Visioline); type: in vivo, SKH-1 hairless mouse; conditions: RA 0.01%, GT/WT/BT 2%
Experimental: as §1, §2, §3
Skin replica was prepared from the back skin of the hairless mouse using the Silflo impression material (Flexico, England). The roughness of the skin was assessed using Visioline. Total wrinkle area (mm^2) was calculated.

[6] = Hematological analysis; type: in vivo, SKH-1 hairless mouse; conditions: RA 0.01%, GT/WT/BT 2%
Experimental: Blood sample was added to a blood collection tube containing the anticoagulant K2EDTA and mixed for more than 5 minutes. Then, concentration of erythrocytes, leukocytes, neutrophils, eosinophils, basophils, lymphocytes, monocytes, platelets and hemoglobin and hematocrit were measured using a hematological analyzer.

[7] = test system: MMP-3; experiment: RT-PCR, MMP-3 mRNA in skin tissue; type: in vivo, SKH-1 hairless mouse; conditions: RA 0.01%, GT/WT/BT 2%
Experimental: 50 mg of the sample from the mouse back skin kept at low temperature was homogenized with 1 mL of Trizol. The homogenized sample was incubated at room temperature for 5 minutes after adding 200 μL of chloroform, and centrifuged at 15,000 rpm and 4° C. for 10 minutes. After collecting and transferring the supernatant to a fresh tube and adding 500 μL of isopropyl alcohol, the sample was centrifuged at 4° C. and 15,000 rpm for 15 minutes. The resulting RNA pellet was washed with 1 mL of 70% ethanol and centrifuged at 4° C. and 15,000 rpm for 15 minutes. The RNA pellet finally obtained by removing the supernatant was diluted with diethylpyrocarbonate (DEPC) and quantitated with 1.8<optical density (OD; A260/A280)<2.0 using a white light/UV transilluminator. cDNA was synthesized from total RNA at a concentration of 0.1-1 μg/μL using the Cycle Script RT PreMix (dT20) kit. The cDNA synthesis was performed by 12 cycles of 1 minute at 30° C. and 4 minutes at 50° C. in 205 μL of DEPC, and the sample was heated at 95° C. for 5 minutes. Polymerase chain reaction (PCR) was carried out in 15.2 μL of sterilized water containing 2 μL of template and […] of primer using the Accupower™ PCR PreMix kit. The reaction was carried out for 35 cycles. […] DNA band density was calculated using the Kodak Gel Logic 100 image analysis system.

[8] = test system: UVB-irradiated skin; experiment: Skin erythema index, SKH-1 hairless mouse; type: in vivo; conditions: for skin erythema index: RA 0.01%, GT/WT/BT 2%
Experimental: as §1, §2, §3, §4

[9] = test system: S-100 protein; experiment: Immunohistochemical S-100 staining; type: in vivo, brown guinea pig; conditions: week 4; 2% sample
Experimental: (§5) After dehydration, followed by washing with xylene and embedding in paraffin, 4 μm-thick samples were prepared. The sample was adhered on a coating slide and stained using the BenchMark XT automated immunostainer (Ventana Medical Systems, USA) after removing paraffin. […] Following reaction with S-100 and HMB-45 primary antibodies diluted to 1:100, the sample was washed with reaction buffer, reacted with biotin for 20 minutes, and then reacted with streptavidin for 25 minutes. After coloring with diaminobenzidine (DAB) using the Ventana detection kit), the sample was stained for observation using an optical microscope.

[10] = Electron donating ability (DPPH radical scavenging, Blois' method); conditions: 800 μg/mL
Experimental: DPPH radical scavenging effect was measuring according to the Blois' method (1958). […] After adding 1 mL of the test sample in a test tube, 4×10^−4 M DPPH (4 mL) was added. The resulting mixture was shaken vigorously, allowed to stand in warm water of 60° C. for 10 seconds, and absorbance was measured at 525 nm. BHT was used as the positive control group. Then, free radical scavenging activity of each solution was calculated as “% inhibition” according to the following equation: % inhibition=[1−(Asample/Ablank)]×100, wherein Ab1ank is the absorbance of the control group (excluding the test sample) and Asample is the absorbance of the test compound.

[11] = test system: UVB-induced hyperpigmentation; experiment: Melanin index (mexameter), brown guinea pig; type: in vivo; conditions: 2% sample topical
Experimental: Three brown guinea pigs weighing 450-550 g were purchased from Oriental Yeast Co. Ltd. (OYC; Japan). The animals were accustomed to the test environment for 7 days. The animals were housed in individual cages under the environment of 22±1° C. and 50±5% relative humidity with 12-hour alternate dark/light cycles. Feed and water were given ad libitum.
UVB-induced hyperpigmentation was elicited on the back of the brown guinea pig according to the method of Choi et al. (2004). After anesthetizing the guinea pig with ketamine hydrochloride (100 mg/kg BW), 24 separate areas (φ 12 mm) on the skin of the back was exposed to UVB radiation (302-nm sunlamp). The areas were exposed to UVB of 500 mJ/cm^2 for 3 consecutive weeks, once a week. That is, a total of 1,500 mJ/cm^2 of UVB was radiated.
On day 10 after the final UVB radiation, 30 μL (1.06 mg/cm^2/day) of 2% HQ, EGCG, GT, WT or BT was topically applied for 4 weeks to the hyperpigmented areas (9 areas per each) using a micropipette, twice a day, and 4 days a week. Saline was used as control, and propylene glycol:ethanol:water (5:3:2) was used as vehicle control.
Before and after the topical application of the test sample, change in melanin pigmentation was measured 3 times in a non-invasive manner using a mexameter, once a week. The degree of pigmentation was analyzed by averaging the measured values.

[12] = test system: gp100 protein; experiment: Immunohistochemical HMB-45 staining (gp100); type: in vivo, brown guinea pig; conditions: week 4; 2% sample
Experimental: as §5

[13] = test system: melanin pigmentation in the epithelium; experiment: Fontana-Masson's silver staining, melanin-pigmented area; type: in vivo, brown guinea pig; conditions: week 4; 2% sample
Experimental: In order to observe the morphological change of the skin tissue using an optical microscope, the extracted skin tissue was fixed in a 10% neutral formalin solution for 12 hours and washed with flowing water. After dehydrating in 70, 80, 95 and 100% ethanol followed by washing with xylene, the tissue was embedded in paraffin and 4 μm-thick samples were prepared using a microtome.
Paraffin was removed from the sample using xylene. After staining the sample for 60 minutes in silver nitrate solution at 56° C. according to the Masson's method (1928), followed by washing, color-toning 0.2% gold chloride solution and washing again, the sample was kept in 5% sodium thiosulfate solution for 5 minutes. Subsequently, after washing the sample once again, followed by counterstaining in nuclear fast red solution, dehydration in 95%, 95%, 100% and 100% alcohol and washing with xylene, the sample was put in Canada balsam for microscopic observation. The percentage of the melanin-pigmented area was calculated using an image analysis software.

[14] = test system: hyperpigmentation; conditions: Ortonne and Passeron 2005; cited from earlier work
[15] = biological target: tyrosinase (Homo sapiens, UniProt P14679); conditions: Briganti et al. 2003; cited from earlier work
Chain of tyrosinase (P14679 19-529, species assumed): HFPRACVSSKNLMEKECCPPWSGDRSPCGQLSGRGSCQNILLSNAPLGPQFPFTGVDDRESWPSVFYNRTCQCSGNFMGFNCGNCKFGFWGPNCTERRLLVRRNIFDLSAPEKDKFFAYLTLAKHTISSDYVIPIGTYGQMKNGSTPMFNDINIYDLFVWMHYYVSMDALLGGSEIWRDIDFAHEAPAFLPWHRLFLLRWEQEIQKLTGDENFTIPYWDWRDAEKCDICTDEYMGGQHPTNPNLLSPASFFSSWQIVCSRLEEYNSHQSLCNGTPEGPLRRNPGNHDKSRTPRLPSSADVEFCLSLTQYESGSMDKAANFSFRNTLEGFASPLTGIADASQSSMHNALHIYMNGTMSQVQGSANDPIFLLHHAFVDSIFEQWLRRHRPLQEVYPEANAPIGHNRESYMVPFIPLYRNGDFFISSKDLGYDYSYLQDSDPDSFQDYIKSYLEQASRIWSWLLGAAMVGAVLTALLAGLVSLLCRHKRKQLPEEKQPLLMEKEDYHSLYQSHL

CC1=C(/C=C/C(C)=C/C=C/C(C)=C/C(=O)O)C(C)(C)CCC1 [RA, retinoic acid]
TEWL ([1]; week 1): 24.16 ± 4.49^c** g/m^2/h
TEWL ([1]; week 2): 18.33 ± 4.85^b** g/m^2/h
TEWL ([1]; week 3): 18.76 ± 3.66^c g/m^2/h
TEWL lower as compared to the control group ([1]; week 4): 58%
TEWL ([1]; week 4): 16.90 ± 3.59^b g/m^2/h
Spleen absolute weight ([2]; RA 0.01%, GT/WT/BT 2%): 0.136 ± 0.015^a g
Spleen relative weight ([2]; RA 0.01%, GT/WT/BT 2%): 0.475 ± 0.053^a g/100 g body weight
Thymus absolute weight ([2]; RA 0.01%, GT/WT/BT 2%): 0.019 ± 0.005^ab g
Thymus relative weight ([2]; RA 0.01%, GT/WT/BT 2%): 0.067 ± 0.01^ab g/100 g body weight
organ weight relative to the normal group ([2]; p <0.05): significantly lower
Food efficiency ratio ([3]; (Body weight gain/Food intake) × 100): −0.94 ± 1.71^a %
Body weight gain ([3]; RA 0.01%, GT/WT/BT 2%): −0.050 ± 0.09^a g/day
Food intake ([3]; RA 0.01%, GT/WT/BT 2%): 5.36 ± 1.06^a g/day
Water intake ([3]; RA 0.01%, GT/WT/BT 2%): 8.57 ± 1.75^b Ml/day
water intake as compared to the control group ([3]; p <0.05): remarkably higher water intake
water content of the skin ([4]; week 1): 57.99 ± 7.31^b AU
water content of the skin ([4]; week 2): 65.70 ± 5.75^c AU
water content of the skin ([4]; week 3): 71.42 ± 5.82^cd AU
water content higher as compared to the control group ([4]; week 4): 207%
water content of the skin ([4]; week 4): 88.59 ± 4.87^cd AU
decreased wrinkle area as compared to the control group [5]: 49%
Basophil [6]: 0.004 ± 0.04^a k/μl
Eosinophil [6]: 0.050 ± 0.05^a k/μl
HCT [6]: 43.442 ± 0.87^b %
Hb [6]: 13.800 ± 0.18^b g/dl
Lymphocyte [6]: 6.462 ± 0.34^c k/μl
Monocyte [6]: 0.204 ± 0.06^b k/μl
Neutrophil [6]: 2.340 ± 0.39^cd k/μl
Platelet [6]: 517.80 ± 16.44^b k/μl
RBC [6]: 4.274 ± 0.17^b M/μl
WBC [6]: 9.114 ± 0.55^b k/μl
expression level of MMP-3 mRNA lower as compared to the control group [7]: 77%
skin erythema index ([8]; week 1): 314.38 ± 17.33^c AU
skin erythema index ([8]; week 2): 301.10 ± 16.60^b AU
skin erythema index ([8]; week 3): 294.43 ± 13.14^b AU
skin erythema index lower as compared to the control group ([8]; week 4): 32%
skin erythema index ([8]; week 4): 282.64 ± 15.50^b AU

Oc1ccc(O)cc1 [HQ, Hydroquinone]
% of S-100 Protein [9]: 4.3 ± 0.5^ab %
S-100 Protein area [9]: 511 ± 89 μm^2
area of S-100 protein expression, decrease by, as compared to the control groups [9]: 69%
Electron donating ability [10]: 93%
melanin index ([11]; week 0): 724.8 ± 22.8^a AU
melanin index ([11]; week 1): 702.9 ± 24.4^a* AU
melanin index ([11]; week 2): 673.9 ± 26.1^c AU
melanin index ([11]; week 3): 636.7 ± 25.8^b AU
melanin index ([11]; week 4): 583.0 ± 28.0^b AU
melanin index decreased by, as compared to the group C ([11]; week 4): 17%
% of Melanin pigment (Table 5, gp 100 protein) [12]: 4.4 ± 0.8^c %
Melanin pigment (area; Table 5, gp 100 protein) [12]: 469 ± 111 μm^2
area of gp 100 protein expression, decrease by, as compared to the group C [12]: 68%
% of melanin pigment [13]: 9.5 ± 1.5^bc %
Melanin pigment area [13]: 1163 ± 268 μm^2
melanin pigmented area decreased by, as compared to the control group [13]: 53%
improves hyperpigmentation in % of cases [14]: 14-70%
decreases tyrosinase activity up to [15]: up to 90%
